The values that follow come from patent US11168095B2, “ASK1 inhibiting agents” (BIOGEN MA INC., priority 2017, dated 2021).

Where only a bound is given, the exact number is not on record here.

The term IC50 denotes the concentration that gives 50% inhibition.

The target in test [1] is ASK1 T838 auto phosphorylation in HEK-293T cells (Homo sapiens (Human), UniProt Q99683). The test is described as follows: ASK1 (AUTO PHOS T838) assay, MSD format. The following applies: HEK 293T cells transfected with ASK1-V5 full length plasmid, compounds 1 hr at 37° C.; read-out: IC50. Format: cell-based. As for the experimental part:
The plates were incubated at 37° C. overnight. Media on plates was changed to OPTI-MEM, serum free media and cells were transfected with 9 μg of ASK1-V5 tagged full length plasmid using Lipofectamine 2000 (Invitrogen) and the plates were incubated at 37° C. overnight. Cells were trypsinized, counted on Nexcellometer and plated into 96 well tissue culture plates with 100,000 cells/well and 200 μL media. Cells were incubated for 4 hr at 37° C. then ASK1 compounds were added using a HP 300e. Compounds were tested at 20 μM with 3 fold, 10 point dilution points then incubated for 1 hr at 37° C. A lysis buffer (Cell Signaling) was prepared with protease and phosphatase inhibitor and maintained at 4° C. until use. Media from cells was discarded and 120 μL of cold lysis buffer was added to the cells, the plate was shaken 4° C. for 1 hr. Lysate was mixed using Apricot liquid handler; aspirating up and down 16 times at high speed using 50 μL volume. […] Plates were then incubated on a plate shaker overnight at 4° C. Plates were washed 3× with MSD wash buffer and 50 μL of rabbit anti-pASK1 T838 antibody was added to the wells and incubated for 2 hr at room temperature on a plate shaker. Plates were then washed and 50 μL of goat anti-rabbit sulfa-tag (1:500 dilution) was added to wells, and incubated for 1 hr at room temperature on a plate shaker. […] Plates were immediately read on a MSD Instrument Reader where chemoluminecense signal was measured. Data was analyzed using Graph Pad or Genedata, the data was normalized and plotted, % activity versus log of compound concentration. The IC50 values were obtained from a 4 parameter fit.

A further test addresses ASK1/MAP3K5 (Homo sapiens (Human), UniProt Q99683). The test is described as follows: ASK1/MAP3K5 assay by Reaction Biology Corp. Format: biochemical. Conditions: 20 μM myelin basic protein (MBP), 10 μM ATP. As for the experimental part:
ASK1/MAP3K5 was used as the protein kinase and 20 μM of myelin basic protein (MBP) and 10 μM ATP were used as the substrate.

ASK1/MAP3K5, sequence (Q99683 whole entry): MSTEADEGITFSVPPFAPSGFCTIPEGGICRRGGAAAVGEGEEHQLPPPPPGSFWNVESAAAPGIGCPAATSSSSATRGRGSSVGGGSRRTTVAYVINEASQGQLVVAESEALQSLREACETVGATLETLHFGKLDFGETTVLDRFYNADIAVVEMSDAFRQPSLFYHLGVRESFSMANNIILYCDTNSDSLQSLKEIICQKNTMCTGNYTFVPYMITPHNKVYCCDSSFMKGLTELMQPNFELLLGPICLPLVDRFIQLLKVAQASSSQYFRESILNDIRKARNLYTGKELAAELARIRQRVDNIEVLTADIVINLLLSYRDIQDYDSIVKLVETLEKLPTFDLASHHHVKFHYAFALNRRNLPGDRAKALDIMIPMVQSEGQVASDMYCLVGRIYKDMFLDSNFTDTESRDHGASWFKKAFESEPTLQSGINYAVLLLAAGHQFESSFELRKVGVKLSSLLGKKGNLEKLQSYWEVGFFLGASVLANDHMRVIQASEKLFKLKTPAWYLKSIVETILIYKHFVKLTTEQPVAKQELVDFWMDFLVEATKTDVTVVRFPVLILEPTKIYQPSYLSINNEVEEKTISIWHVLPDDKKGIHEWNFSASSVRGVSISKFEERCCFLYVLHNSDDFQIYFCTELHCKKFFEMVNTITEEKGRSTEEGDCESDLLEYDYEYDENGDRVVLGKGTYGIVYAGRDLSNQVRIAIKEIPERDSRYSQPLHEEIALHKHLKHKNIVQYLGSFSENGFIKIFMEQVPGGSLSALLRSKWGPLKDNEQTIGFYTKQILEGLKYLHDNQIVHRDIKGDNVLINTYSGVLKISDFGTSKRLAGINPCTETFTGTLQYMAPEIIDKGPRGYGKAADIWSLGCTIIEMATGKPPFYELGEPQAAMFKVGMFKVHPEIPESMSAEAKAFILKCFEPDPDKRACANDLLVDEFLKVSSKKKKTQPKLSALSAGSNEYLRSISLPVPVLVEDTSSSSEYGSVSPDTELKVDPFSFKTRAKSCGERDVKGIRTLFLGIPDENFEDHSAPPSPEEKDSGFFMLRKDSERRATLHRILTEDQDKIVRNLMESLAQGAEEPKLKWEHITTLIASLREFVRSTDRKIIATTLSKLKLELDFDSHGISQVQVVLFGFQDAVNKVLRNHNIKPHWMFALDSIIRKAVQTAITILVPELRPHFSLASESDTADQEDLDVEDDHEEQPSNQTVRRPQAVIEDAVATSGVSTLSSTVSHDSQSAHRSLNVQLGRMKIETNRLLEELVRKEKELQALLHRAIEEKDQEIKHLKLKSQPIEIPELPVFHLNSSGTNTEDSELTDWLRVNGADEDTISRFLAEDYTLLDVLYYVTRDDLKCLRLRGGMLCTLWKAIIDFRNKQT
ASK1 T838 auto phosphorylation in HEK-293T cells, sequence (Q99683 whole entry): as above

For the compound `O=C1Nc2cccc(n2)-c2nncn2CCCCOc2ccc(-c3cnn(C4CCC4)c3)cc21` [Example 35, 5^5-(1-Cyclobutyl-1H-pyrazol-4-yl)-1^4H-6-oxa-3-aza-2(2,6)-pyridina-1(3,4)-triazola-5(1,2)-benzenacyclodecaphan-4-one], the IC50 was < 1000 nM in test [1] and < 100 nM against ASK1/MAP3K5.

For `CC(C)n1cc(-c2ccc3c(c2)C(=O)Nc2cccc(n2)-c2nncn2CCCCO3)cn1` [Example 36, 5^5-(1-Isopropyl-1H-pyrazol-4-yl)-1^4H-6-oxa-3-aza-2(2,6)-pyridina-1(3,4)-triazola-5(1,2)-benzenacyclodecaphan-4-one], the IC50 in test [1] is < 1000 nM; on ASK1/MAP3K5, < 100 nM.

With `Cc1c(-c2ccc3c(c2)C(=O)Nc2cccc(n2)-c2nncn2CCCCO3)cnn1C` [Example 37, 5^5-(1,5-Dimethyl-1H-pyrazol-4-yl)-1^4H-6-oxa-3-aza-2(2,6)-pyridina-1(3,4)-triazola-5(1,2)-benzenacyclodecaphan-4-one], the IC50 in test [1] is < 1000 nM; on ASK1/MAP3K5, < 100 nM.

In the case of `O=C1Nc2cccc(n2)-c2nncn2CCCCOc2ccc(-c3cnn(C4COC4)c3)cc21` [Example 38, 5^5-(1-(Oxetan-3-yl)-1H-pyrazol-4-yl)-1^4H-6-oxa-3-aza-2(2,6)-pyridina-1(3,4)-triazola-5(1,2)-benzenacyclodecaphan-4-one], the IC50 in test [1] is < 1000 nM; against ASK1/MAP3K5 it was < 100 nM.

Take `CN1CCn2ncc(-c3ccc4c(c3)C(=O)Nc3cccc(n3)-c3nncn3CCCCO4)c2C1` [Example 40, 5^5-(5-Methyl-4,5,6,7-tetrahydropyrazolo[1,5-a]pyrazin-3-yl)-1^4H-6-oxa-3-aza-2(2,6)-pyridina-1(3,4)-triazola-5(1,2)-benzenacyclodecaphan-4-one]: the IC50 in test [1] was < 1000 nM; at ASK1/MAP3K5, < 100 nM.

For the compound `O=C1Nc2cccc(n2)-c2nncn2CCCCOc2ccc(-n3ccnc3)cc21` [Example 41, 5^5-(1H-Imidazol-1-yl)-1^4H-6-oxa-3-aza-2(2,6)-pyridina-1(3,4)-triazola-5(1,2)-benzenacyclodecaphan-4-one], the figures for the IC50 (in test [1]; at ASK1/MAP3K5) were < 1000 nM and < 100 nM, respectively.

For the compound `Cc1nccn1-c1ccc2c(c1)C(=O)Nc1cccc(n1)-c1nncn1CCCCO2` [Example 43, 5^5-(2-Methyl-1H-imidazol-1-yl)-1^4H-6-oxa-3-aza-2(2,6)-pyridina-1(3,4)-triazola-5(1,2)-benzenacyclodecaphan-4-one], the IC50 in test [1] is < 1000 nM; against ASK1/MAP3K5 it was < 100 nM.

In the case of `Cc1ccn(-c2ccc3c(c2)C(=O)Nc2cccc(n2)-c2nncn2CCCCO3)n1` [Example 45, 5^5-(3-Methyl-1H-pyrazol-1-yl)-1^4H-6-oxa-3-aza-2(2,6)-pyridina-1(3,4)-triazola-5(1,2)-benzenacyclodecaphan-4-one], the IC50 in test [1] is < 1000 nM; on ASK1/MAP3K5, < 100 nM.

`Cc1ccnn1-c1ccc2c(c1)C(=O)Nc1cccc(n1)-c1nncn1CCCCO2` [Example 45a, 5^5-(5-Methyl-1H-pyrazol-1-yl)-1^4H-6-oxa-3-aza-2(2,6)-pyridina-1(3,4)-triazola-5(1,2)-benzenacyclodecaphan-4-one]: the IC50 lay within 1000 to 10000 nM in test [1] and 100 to 1000 nM at ASK1/MAP3K5.

For the compound `Cc1cc(C)n(-c2ccc3c(c2)C(=O)Nc2cccc(n2)-c2nncn2CCCCO3)n1` [Example 46, 5^5-(3,5-Dimethyl-1H-pyrazol-1-yl)-1^4H-6-oxa-3-aza-2(2,6)-pyridina-1(3,4)-triazola-5(1,2)-benzenacyclodecaphan-4-one], the values for the IC50 (in test [1]; against ASK1/MAP3K5) were < 1000 nM and < 100 nM, respectively.

Turning to `NCc1ccc2c(c1)C(=O)Nc1cccc(n1)-c1nncn1CCCCO2` [Example 47, 5^5-(Aminomethyl)-1^4H-6-oxa-3-aza-2(2,6)-pyridina-1(3,4)-triazola-5(1,2)-benzenacyclodecaphan-4-one], the results for the IC50 (in test [1]; against ASK1/MAP3K5) were < 1000 nM and < 100 nM, respectively.

Regarding `CN(C)Cc1ccc2c(c1)C(=O)Nc1cccc(n1)-c1nncn1CCCCO2` [Example 48, 5^5-((Dimethylamino)methyl)-1^4H-6-oxa-3-aza-2(2,6)-pyridina-1(3,4)-triazola-5(1,2)-benzenacyclodecaphan-4-one], the IC50 was < 1000 nM in test [1] and < 100 nM on ASK1/MAP3K5.

Consider `CC(C)(O)c1ccc2c(c1)C(=O)Nc1cccc(n1)-c1nncn1CCCCO2` [Example 49, 5^5-(2-Hydroxypropan-2-yl)-1^4H-6-oxa-3-aza-2(2,6)-pyridina-1(3,4)-triazola-5(1,2)-benzenacyclodecaphan-4-one], for which the IC50 in test [1] was < 1000 nM; against ASK1/MAP3K5, < 100 nM.

As for `COC(C)(C)c1ccc2c(c1)C(=O)Nc1cccc(n1)-c1nncn1CCCCO2` [Example 50, 5^5-(2-Methoxypropan-2-yl)-1^4H-6-oxa-3-aza-2(2,6)-pyridina-1(3,4)-triazola-5(1,2)-benzenacyclodecaphan-4-one], the results for the IC50 (in test [1]; against ASK1/MAP3K5) were < 1000 nM and < 100 nM, respectively.

`CC(C)(C#N)c1ccc2c(c1)C(=O)Nc1cccc(n1)-c1nncn1CCCCO2` [Example 51, 2-Methyl-2-(4-oxo-1^4H-6-oxa-3-aza-2(2,6)-pyridina-1(3,4)-triazola-5(1,2)-benzenacyclodecaphane-5^5-yl)propanenitrile]: the IC50 in test [1] was < 1000 nM.

With `CN(C)CCn1cc(-c2cc3c(cc2C(F)(F)F)OCCCCn2cnnc2-c2cccc(n2)NC3=O)cn1` [Example 77, 5^5-(1-(2-(Dimethylamino)ethyl)-1H-pyrazol-4-yl)-5^4-(trifluoromethyl)-1^4H-6-oxa-3-aza-2(2,6)-pyridina-1(3,4)-triazola-5(1,2)-benzenacyclodecaphan-4-one], the IC50 in test [1] is < 1000 nM.

As for `C[C@H]1CCCOc2cc(F)c(N3CCN(C)CC3)cc2C(=O)Nc2cccc(n2)-c2nncn21` [Example 105, (S)-5^4-Fluoro-10-methyl-5^5-(4-methylpiperazin-1-yl)-1^4H-6-oxa-3-aza-2(2,6)-pyridina-1(3,4)-triazola-5(1,2)-benzenacyclodecaphan-4-one], in test [1], the IC50 is < 1000 nM.

Take `C[C@H]1CCCOc2cc(F)c(-c3ccncc3F)cc2C(=O)Nc2cccc(n2)-c2nncn21` [Example 109, (S)-5^4-Fluoro-5^5-(3-fluoropyridin-4-yl)-10-methyl-1^4H-6-oxa-3-aza-2(2,6)-pyridina-1(3,4)-triazola-5(1,2)-benzenacyclodecaphan-4-one]: the IC50 in test [1] was < 1000 nM.

In the case of `C[C@H]1CCOc2cc(F)c(N3CCOCC3)cc2C(=O)Nc2cccc(n2)-c2nncn2C1` [Example 126, (S)-5^4-Fluoro-9-methyl-5^5-morpholino-1^4H-6-oxa-3-aza-2(2,6)-pyridina-1(3,4)-triazola-5(1,2)-benzenacyclodecaphan-4-one], the IC50 in test [1] is < 1000 nM.

Turning to `C[C@H]1CCOc2cc(F)c(-c3cccnc3F)cc2C(=O)Nc2cccc(n2)-c2nncn2C1` [Example 128, (S)-5^4-Fluoro-5^5-(2-fluoropyridin-3-yl)-9-methyl-1^4H-6-oxa-3-aza-2(2,6)-pyridina-1(3,4)-triazola-5(1,2)-benzenacyclodecaphan-4-one], the IC50 in test [1] is < 1000 nM.

Turning to `C[C@H]1CCOc2cc(F)c(-c3ccc(F)nc3)cc2C(=O)Nc2cccc(n2)-c2nncn2C1` [Example 129, (S)-5^4-Fluoro-5^5-(6-fluoropyridin-3-yl)-9-methyl-1^4H-6-oxa-3-aza-2(2,6)-pyridina-1(3,4)-triazola-5(1,2)-benzenacyclodecaphan-4-one], in test [1], the half-maximal inhibitory concentration (IC50) is < 1000 nM.

In the case of `C[C@H]1CCOc2cc(F)c(-c3cnn4c3CN(C)CC4)cc2C(=O)Nc2cccc(n2)-c2nncn2C1` [Example 131, (S)-5^4-Fluoro-9-methyl-5^5-(5-methyl-4,5,6,7-tetrahydropyrazolo[1,5-a]pyrazin-3-yl)-1^4H-6-oxa-3-aza-2(2,6)-pyridina-1(3,4)-triazola-5(1,2)-benzenacyclodecaphan-4-one], the IC50 in test [1] was < 1000 nM.

With `C[C@@H]1CCOc2cc(F)c(-c3cnn4c3CN(C)CC4)cc2C(=O)Nc2cccc(n2)-c2nncn2C1` [Example 132, (R)-5^4-Fluoro-9-methyl-5^5-(5-methyl-4,5,6,7-tetrahydropyrazolo[1,5-a]pyrazin-3-yl)-1^4H-6-oxa-3-aza-2(2,6)-pyridina-1(3,4)-triazola-5(1,2)-benzenacyclodecaphan-4-one], in test [1], the IC50 is < 1000 nM.

Take `Cc1cn(-c2cc3c(cc2F)OCC[C@H](C)Cn2cnnc2-c2cccc(n2)NC3=O)cn1` [Example 133, (S)-5^4-Fluoro-9-methyl-5^5-(4-methyl-1H-imidazol-1-yl)-1^4H-6-oxa-3-aza-2(2,6)-pyridina-1(3,4)-triazola-5(1,2)-benzenacyclodecaphan-4-one]: the IC50 in test [1] is < 1000 nM.

In the case of `CN1CCn2ncc(-c3cc4c(cc3F)OCC/C=C\Cn3cnnc3-c3cccc(n3)NC4=O)c2C1` [Example 182, (Z)-5^4-Fluoro-5^5-(5-methyl-4,5,6,7-tetrahydropyrazolo[1,5-a]pyrazin-3-yl)-1^4H-6-oxa-3-aza-2(2,6)-pyridina-1(3,4)-triazola-5(1,2)-benzenacycloundecaphan-9-en-4-one], in test [1], the IC50 is < 1000 nM.
